This note sets out measurements from US20230357179A1, “RAF KINASE INHIBITORS AND METHODS OF USE THEREOF” (Deciphera Pharmaceuticals, LLC, priority 2021, published 2023).

One assay has as its target T1, A-Raf kinase (Homo sapiens, UniProt P10398, Y301D/Y302D).
T1 construct: purchased Sigma
Kind of assay: Biochemical assay for A-Raf.1 (coupled pyruvate kinase/lactate dehydrogenase). Particulars: read-out: ARAF.1 IC50. Summed up:
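IC50 values came from four-parameter sigmoidal fits of percent inhibition, using rates over the 4 to 5 h window of continuous A340 readings (6 h, 30° C). The coupled PK/LDH system tracked NADH oxidation during 5.55 nM A-Raf activity on 30.1 nM MEK at 1 mM ATP, buffer pH 7.5.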

A further assay deals with T2, B-Raf (V600E) kinase (Homo sapiens, UniProt P15056, V600E).
T2 construct: B-Raf (V600E) residues 416-766 with a; GST (N); purchased SignalChem
T2 sequence (P15056 416-766 V600E): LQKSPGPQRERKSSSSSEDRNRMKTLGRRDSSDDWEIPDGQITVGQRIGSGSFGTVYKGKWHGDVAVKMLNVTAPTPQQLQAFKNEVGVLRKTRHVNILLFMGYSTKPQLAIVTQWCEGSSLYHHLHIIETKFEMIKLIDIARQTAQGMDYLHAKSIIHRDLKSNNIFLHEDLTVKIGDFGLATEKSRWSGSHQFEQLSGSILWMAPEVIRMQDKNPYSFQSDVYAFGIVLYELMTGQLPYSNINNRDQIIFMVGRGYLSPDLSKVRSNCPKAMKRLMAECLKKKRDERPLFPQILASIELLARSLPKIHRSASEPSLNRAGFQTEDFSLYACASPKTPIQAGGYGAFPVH
The experiment in a line: Biochemical assay for B-Raf (V600E).1 (coupled pyruvate kinase/lactate dehydrogenase). As to conditions: read-out: BRAF V600E.1 IC50. The procedure, abridged: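 IC50 came from four-parameter sigmoidal fits of percent inhibition, using reaction rates over 3-4 h. Continuous A340 reading (6 h, 30 °C) of a pyruvate kinase/lactate dehydrogenase-coupled reaction: B-Raf V600E 0.03 nM, MEK 30.1 nM, ATP 1 mM, Tris pH 7.5, 1% DMSO.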

Another assay has as its system A375 cells. Kind of assay: A375 cell proliferation assay (1), resazurin, 96-well. Format: cell-based. Particulars: Homo sapiens, A-375, inhibition of cell proliferation. On the procedure:
A375 Cell Proliferation Assay (1)
A375 cells (catalog (#CRL-1619) are obtained from the American Type Culture Collect (ATTC, Manassas, VA). Briefly, cells were grown in DMEM High Glucose supplemented with 10% characterized fetal bovine serum (Invitrogen, Carlsbad, CA) and 1% Penicillin/Streptomycin/L-Glutamine at 37° C., 5% CO2, and 95% humidity. Cells are expanded until reaching 70-95% confluency at which point they are sub-cultured or harvested for assay use. A serial dilution of test compound is dispensed into a 96-well black clear bottom plate in triplicate. Two thousand five hundred cells are added per well in 200 μL complete growth medium in the 96-well plate. Plates are incubated for 67-72 hours at 37° C., 5% CO2, and 95% humidity. At the end of the incubation, 40 μL of a 440 μM solution of resazurin (Sigma, St. Louis, MO) in PBS is added to each well of the plate and plates are incubated for an additional 5-6 hours at 37° C., 5% CO2, and 95% humidity. Plates are read on a Synergy2 or equivalent reader (Biotek, Winooski VT) using an excitation of 540 nm and an emission of 600 nm. Data is analyzed using Prism software (GraphPad, San Diego, CA) to calculate IC50 values.

The next assay has as its system H2405 cells. Kind of assay: H2405 cell proliferation assay (1), resazurin, 96-well. It is filed as cell-based. As to conditions: Homo sapiens, NCI-H2405, inhibition of cell proliferation. On the procedure:
H2405 Cell Proliferation Assay (1)
H2405 cells (catalog #CRL-5944) are obtained from the American Type Culture Collect (ATTC, Manassas, VA). Briefly, cells were grown in RPMI 1640 supplemented with 5% characterized fetal bovine serum (Invitrogen, Carlsbad, CA) and 1% Penicillin/Streptomycin/L-Glutamine at 37° C., 5% CO2, and 95% humidity. Cells are expanded until reaching 70-95% confluency at which point they are subcultured or harvested for assay use. A serial dilution of test compound is dispensed into a 96-well black clear bottom plate in triplicate. Three thousand cells are added per well in 200 μL complete growth medium in the 96-well plate. Plates are incubated for 67-72 hours at 37° C., 5% CO2, and 95% humidity. At the end of the incubation, 40 μL of a 440 μM solution of resazurin (Sigma, St. Louis, MO) in PBS is added to each well of the plate and plates are incubated for an additional 5-6 hours at 37° C., 5% CO2, and 95% humidity. Plates are read on a Synergy2 or equivalent reader (Biotek, Winooski VT) using an excitation of 540 nm and an emission of 600 nm. Data is analyzed using Prism software (GraphPad, San Diego, CA) to calculate IC50 values.

T1 sequence (P10398 with tags, fused parts or gaps Y301D/Y302D): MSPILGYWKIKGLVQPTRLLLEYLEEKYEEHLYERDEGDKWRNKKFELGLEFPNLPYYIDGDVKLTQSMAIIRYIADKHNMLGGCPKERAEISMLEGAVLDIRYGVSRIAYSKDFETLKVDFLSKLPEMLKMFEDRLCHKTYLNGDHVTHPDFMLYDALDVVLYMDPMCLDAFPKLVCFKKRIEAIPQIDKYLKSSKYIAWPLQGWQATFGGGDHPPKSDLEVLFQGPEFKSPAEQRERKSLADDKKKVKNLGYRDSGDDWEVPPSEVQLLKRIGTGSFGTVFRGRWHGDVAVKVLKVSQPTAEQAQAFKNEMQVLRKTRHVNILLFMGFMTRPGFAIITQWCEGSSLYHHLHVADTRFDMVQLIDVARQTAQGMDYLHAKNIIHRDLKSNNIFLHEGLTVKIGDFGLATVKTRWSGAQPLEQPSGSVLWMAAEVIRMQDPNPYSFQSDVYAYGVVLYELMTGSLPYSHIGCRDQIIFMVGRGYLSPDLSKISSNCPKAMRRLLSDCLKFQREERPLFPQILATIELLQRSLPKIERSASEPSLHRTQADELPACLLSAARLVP

Consider `COC(=O)Nc1cc(-c2nccc(-c3cc(NC(=O)NCCC4(C)CC4)cnc3C)n2)ccn1` [Example 135], for which the IC50 was more than 1000 nM on A-Raf kinase, not above 100 nM on B-Raf (V600E) kinase, 1000 to 10000 nM in the assay with A375 cells and 1000 to 10000 nM in the assay with H2405 cells.

Take `Cc1cc(F)c(NC(=O)NCCC(C)(C)F)cc1-c1cc(OCCO)nc(-c2ccnc3[nH]ccc23)c1` [Example 97]: the IC50 was more than 1000 nM at A-Raf kinase, not above 100 nM on B-Raf (V600E) kinase, 1000 to 10000 nM in the assay with A375 cells and 500 to 1000 nM in the assay with H2405 cells.

As to `COC(=O)Nc1cc(-c2cc(-c3cc(NC(=O)N4CCC(C)(C)CC4)cnc3C)cc(OCCO)n2)ccn1` [Example 166], the IC50 on A-Raf kinase is more than 1000 nM; at B-Raf (V600E) kinase, not above 100 nM; with A375 cells, 1000 to 10000 nM; in the assay on H2405 cells, 500 to 1000 nM.

Take `Cc1cc(F)c(NC(=O)NCCC(C)(C)F)cc1-c1cc(-c2ccnc(NC(=O)C3CC3)c2)cnn1` [Example 139]: the IC50 at A-Raf kinase is more than 1000 nM; at B-Raf (V600E) kinase it was not above 100 nM; in the assay on A375 cells it was 1000 to 10000 nM; in the assay with H2405 cells, 500 to 1000 nM.

As for `COC(=O)Nc1cc(-c2ccnc(-c3cc(NC(=O)NCCC(C)(C)OC)c(F)cc3C)n2)ccn1` [Example 171], the half-maximal inhibitory concentration (IC50) is more than 1000 nM at A-Raf kinase, not above 100 nM at B-Raf (V600E) kinase, 1000 to 10000 nM with A375 cells and 1000 to 10000 nM with H2405 cells.

Consider `COC(=O)Nc1cc(-c2cc(-c3cc(NC(=O)NCCN4CCC4)c(F)cc3C)cc(OCCO)n2)ccn1` [Example 125], for which the IC50 on A-Raf kinase is more than 1000 nM; at B-Raf (V600E) kinase it was 100 to 500 nM; with A375 cells, 1000 to 10000 nM; with H2405 cells it was 1000 to 10000 nM.

`COC(=O)Nc1cc(-c2cccc(-c3cc(NC(=O)NCCC4(C)CC4)cnc3C)c2)ncn1` [Example 170]: the IC50 is more than 1000 nM at A-Raf kinase, not above 100 nM on B-Raf (V600E) kinase, 500 to 1000 nM in the assay on A375 cells and 100 to 500 nM in the assay on H2405 cells.

Regarding `Cc1cc(F)c(NC(=O)NC2CC(C)(C)C2)cc1-c1cc(OCCO)nc(-c2ccnc(NC(=O)C3CC3)c2)n1` [Example 167], the IC50 at A-Raf kinase is 500 to 1000 nM; at B-Raf (V600E) kinase, not above 100 nM; in the assay on A375 cells, not above 100 nM; with H2405 cells, not above 100 nM.

For `COC(C)(C)CCNC(=O)Nc1cc(-c2ccnc(-c3ccnc(NC(=O)C4CC4)c3)c2)c(F)cc1F` [Example 162], the IC50 at A-Raf kinase is more than 1000 nM; on B-Raf (V600E) kinase it was not above 100 nM; with A375 cells, 1000 to 10000 nM; in the assay on H2405 cells, 1000 to 10000 nM.

For `Cc1ncc(NC(=O)NCCC2(C)CC2)cc1-c1cc(OCCO)nc(-c2ccnc(NC(=O)C3CC3)c2)c1` [Example 113], the IC50 on A-Raf kinase is 500 to 1000 nM; on B-Raf (V600E) kinase, not above 100 nM; in the assay on A375 cells it was 100 to 500 nM; in the assay on H2405 cells it was 100 to 500 nM.

As for `Cc1ncc(NC(=O)NCCC2(C)CC2)cc1-c1cc(OCCO)nc(-c2ccnc3c2CC(=O)N3)c1` [Example 112], the IC50 was more than 1000 nM on A-Raf kinase, not above 100 nM on B-Raf (V600E) kinase, 1000 to 10000 nM in the assay with A375 cells and 1000 to 10000 nM with H2405 cells.

Take `Cc1ncc(NC(=O)NC[C@H](O)C(C)(C)C)cc1-c1ccnc(-c2ccnc(NC(=O)C3CC3)c2)c1` [Example 102]: the IC50 at A-Raf kinase was more than 1000 nM; at B-Raf (V600E) kinase, not above 100 nM; in the assay with A375 cells, 1000 to 10000 nM; in the assay on H2405 cells, 1000 to 10000 nM.

Turning to `Cc1ncc(NC(=O)NCCC(C)(C)F)cc1-c1nccc(-c2ccnc(NC(=O)C3CC3)c2)n1` [Example 130], the IC50 is more than 1000 nM on A-Raf kinase, not above 100 nM at B-Raf (V600E) kinase, 1000 to 10000 nM in the assay with A375 cells and 1000 to 10000 nM in the assay on H2405 cells.

With `Cc1ccc(NC(=O)Nc2cccc(C(F)(F)F)c2)cc1-c1cc(OCCO)nc(N2CCOCC2)c1` [Example 3, 1-(3-(2-(2-hydroxyethoxy)-6-morpholinopyridin-4-yl)-4-methylphenyl)-3-(3-(trifluoromethyl)phenyl)urea], the IC50 on A-Raf kinase was 100 to 500 nM; on B-Raf (V600E) kinase it was not above 100 nM; with A375 cells, 500 to 1000 nM.
